Literature values, collected in US20100008998A1, “SUBMICRON NANOPARTICLE OF POORLY WATER SOLUBLE CAMPTOTHECIN DERIVATIVES AND PROCESS FOR PREPARATION THEREOF” (SAMYANG CORPORATION, priority 2006, published 2010).
Read-outs that look alike come from different tables or passages of the source.

Key:
[1] = not given; remark: listed apart in the source
[2] = target: T1, topoisomerase I (Homo sapiens, UniProt P11387)
T1 sequence (P11387 1-765): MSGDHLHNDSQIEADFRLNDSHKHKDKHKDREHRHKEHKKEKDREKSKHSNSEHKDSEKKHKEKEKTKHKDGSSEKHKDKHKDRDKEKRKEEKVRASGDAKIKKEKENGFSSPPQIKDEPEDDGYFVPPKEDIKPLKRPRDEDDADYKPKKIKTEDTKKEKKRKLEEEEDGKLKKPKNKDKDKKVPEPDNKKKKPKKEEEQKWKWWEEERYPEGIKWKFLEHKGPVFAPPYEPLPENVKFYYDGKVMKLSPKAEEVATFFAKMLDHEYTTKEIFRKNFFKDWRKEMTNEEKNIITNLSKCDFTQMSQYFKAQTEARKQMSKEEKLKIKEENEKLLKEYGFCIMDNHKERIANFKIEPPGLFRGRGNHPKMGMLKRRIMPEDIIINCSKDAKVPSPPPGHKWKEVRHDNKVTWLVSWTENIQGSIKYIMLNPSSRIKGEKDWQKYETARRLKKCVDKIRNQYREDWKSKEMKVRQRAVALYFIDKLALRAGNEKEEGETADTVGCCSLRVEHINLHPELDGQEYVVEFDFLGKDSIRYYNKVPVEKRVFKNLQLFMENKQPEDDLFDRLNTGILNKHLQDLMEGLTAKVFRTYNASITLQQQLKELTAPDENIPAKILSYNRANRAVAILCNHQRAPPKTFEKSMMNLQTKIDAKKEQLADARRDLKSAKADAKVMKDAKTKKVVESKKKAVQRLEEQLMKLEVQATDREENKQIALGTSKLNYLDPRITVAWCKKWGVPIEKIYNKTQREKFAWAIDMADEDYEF

[3] = in the human body

conversion rate of CPT-11 into the active SN-38 [3] [%] | SMILES | better in in vitro cytotoxicity compared to CPT-11 | water solubility [1] [µg/mL] | water solubility ([1]; active lactone form) [µg/mL] | can be dissolved in water in the amounts of ([1]; carboxy anion form) [mg/mL] | better in suppressing the activity of topoisomerase I compared to CPT-11 [2]
– | CCc1c2c(nc3ccc(O)cc13)-c1cc3c(c(=O)n1C2)COC(=O)[C@]3(O)CC [SN-38, 7-Ethyl-10-hydroxycamptothecin] | ≥ 2,000 times | ≤ 10 | ≤ 10 | ≥ 4 | ≥ 1,000 times
≤ 10 | CCc1c2c(nc3ccc(OC(=O)N4CCC(N5CCCCC5)CC4)cc13)-c1cc3c(c(=O)n1C2)COC(=O)[C@]3(O)CC [CPT-11] | – | – | – | – | –
